Tests used:
Format in all cases: cell-based, Human papilloma virus
[1] = test system: HPV 16; test: HPV 16 episome DNA levels in W12E cells by Q-PCR (Taqman); settings: for IC50: effective (pseudo) IC50, 50% reduction in HPV DNA relative to vehicle (0.1% DMSO), read-out: HPV-16 IC50
Procedure: Cells maintaining HPV 16 DNA were cultured for 72 hours in the presence of cidofovir, interferon γ or polyamide. Viral DNA was then quantified using real-time PCR and compared to vehicle (DMSO)-treated control cultures.
Compounds were initially tested for effects on HPV 16 episome DNA levels in W12E cells by Q-PCR (Taqman™) over 3 concentration ranges (0.1, 1 and 10 μM). W12E cells are a cervical keratinocyte cell line originally identified by M. Stanley (Cambridge University), and later optimized and provided by P. Lambert (U. of Wisconsin). […] In all cases (initial tests and follow-up IC50 tests), dose testing was performed in triplicate. […] Furthermore, all experiments were conducted in triplicate, multiple times. The data were then combined, pseudo or effective IC50 values calculated, and variance determined to reveal the fit of the data to the model and its reliability.
Keratinocytes that maintain HPV 16 episomes were treated with increasing concentrations of polyamides.

[2] = test system: HPV31; test: HPV31 DNA levels in keratinocytes by real-time PCR; settings: effective (pseudo) IC50
Procedure: (§1) Human keratinocytes, including those maintaining HPV episomes, are cultured on mitomycin C-treated J2 3T3 cells in media containing three parts Dulbecco's modified Eagle medium (DMEM) and one part F12 media, our modification of published methods (Rheinwald and Green, 1975). Media (E Media) is supplemented with 0.4 μg/mL hydrocortisone, 10 ng/mL cholera toxin, 5 μg/mL insulin, 24 μg/mL adenine, 5 μg/mL transferrin, […] (T3), 10 ng/mL epidermal growth factor (EGF), 1% penicillin-streptomycin, and 5% fetal bovine serum (FBS). All cells are passaged at 70% confluency at a split ratio of 1:5.
(§2) Polyamides for HPV 18 are dissolved at 10 mM in 100% DMSO and diluted with H2O to 1 mM. Polyamides are added to cells in E media at final concentrations of 0.1-10 μM, with final DMSO concentrations of 0.1%. As controls, cells are incubated with normal E media and E media containing the “vehicle” 0.1% DMSO. The HPV DNA levels are then quantified according to previously published procedures (Garner-Hamrick and Fisher, Virology, 301, 334-41, 2002). After incubation, cells are harvested from the plates by either trypsinization or direct lysis with proteinase K digestion buffer (PK buffer: 100 mM NaCl, 10 mM Tris pH 8, 25 mM EDTA, 0.5% SDS, 0.1 mg/mL proteinase K). Trypsinized cells are counted on a hemocytometer and pelleted by centrifugation. Episomal HPV is isolated by the Hirt method (Hirt, 1967) and cell pellets are lysed in 0.6% SDS with 10 mM EDTA. NaCl is next added to a final concentration of 1 M. Following an overnight incubation at 4° C., precipitates containing the chromosomal DNA are spun down and episomal DNA precipitated by the addition of isopropanol. Cells lysed directly in PK buffer are transferred to microfuge tubes and incubated at 50° C. for 2 h. Lysates are then extracted with phenol/chloroform/isoamyl alcohol and spun through a phase lock gel (Eppendorf, Hamburg, Germany). Total DNA is then precipitated with 0.3 M NaOAc and 2.5 vol. ethanol and resuspended in Tris-EDTA (TE) buffer.
HPV31 primers-probe sets for PCR were also designed within the L1 gene:
(§3) All primers and probes are synthesized and HPLC purified by Applied Biosystems (Foster City, Calif.). The HPV probes are labeled with the 5′ reporter dye FAM (6-carboxy-fluorescein) and the 3′ quencher dye TAMRA (6-carboxytetramethyl-rhodamine). A standard curve is generated using a range of 10^8 to 10 copies/reaction of cloned, genomic HPV31 or HPV18 DNA using the following formula: (1.82×10^15)(μg/μL stock DNA)/(length in base pairs)(2)=copies/μL stock DNA. PCR reactions contain final concentrations of 1× Universal Master Mix (PE Applied Biosystems), 200 nM of each primer, and 250 nM probe (PE Applied Biosystems) in a reaction volume of 25 μL. Each Hirt-isolated DNA sample is analyzed in triplicate reactions for episomal HPV. Copies/reaction are determined from the standard curve, and copies/cell determined according to the following formula: (copies/reaction)×(DNA dilution)/(total # cells)=copies/cell.

[3] = test system: HPV18; test: HPV18 DNA levels in keratinocytes by real-time PCR; settings: effective (pseudo) IC50
Procedure: as §1, §2
Viral DNA levels are next quantified according to variations on our previously published methods (Garner-Hamrick and Fisher, Virology, 301, 334-41, 2002). Quantitative PCR is performed using Real-Time PCR technology on an ABI PRISM 7700 Sequence Detector. All primers and probes were designed using Primer Express 1.0 (ABI). For HPV 18, PCR primer-probe sets were designed within the L1 gene:
as §3

| Molecule | IC50 [1] | IC50 [2] | IC50 [3] | effect on absolute HPV 16 DNA levels ([1]; higher doses, in some experiments, FIG. 3) |
| --- | --- | --- | --- | --- |
| CN(CCCN)CCCNC(=O)CCNC(=O)c1cc(NC(=O)c2cc(NC(=O)c3cc(NC(=O)CCNC(=O)c4cc(NC(=O)c5cc(NC(=O)c6cc(NC(=O)CCNC(=O)c7cc(NC(=O)c8cc(NC(=O)[C@H](N)CCNC(=O)c9cc(NC(=O)c%10cc(NC(=O)CCNC(=O)c%11nc(NC(=O)c%12cc(NC(=O)c%13cc(NC(=O)CCNC(=O)c%14cc(NC(=O)c%15cc(NC(=O)c%16nccn%16C)cn%15C)cn%14C)cn%13C)cn%12C)cn%11C)cn%10C)cn9C)cn8C)cn7C)cn6C)cn5C)cn4C)cn3C)cn2C)cn1C [Polyamide 1067, ImPPβPPIβPPγNH2PPβPPPβPPPβTa] | 0.1 to 1 µM | 0.1 to 1 µM | 0.1 to 1 µM | – |
| CN(C)CCCNC(=O)CCNC(=O)c1cc(NC(=O)CCNC(=O)c2cc(NC(=O)c3cc(NC(=O)c4cc(NC(=O)CCNC(=O)c5cc(NC(=O)c6cc(NC(=O)CCCNC(=O)CCNC(=O)c7cc(NC(=O)c8cc(NC(=O)CCNC(=O)c9cc(NC(=O)c%10cc(NC(=O)c%11cc(NC(=O)c%12nccn%12C)cn%11C)cn%10C)cn9C)cn8C)cn7C)cn6C)cn5C)cn4C)cn3C)cn2C)cn1C [Polyamide 1022, ImPPPβPPβγPPβPPPβPβDp] | > 1 µM | ≥ 1 µM | – | – |
| CN(C)CCCNC(=O)CCNC(=O)c1cc(NC(=O)c2cc(NC(=O)c3cc(NC(=O)CCNC(=O)c4cc(NC(=O)c5cc(NC(=O)c6cc(NC(=O)CCNC(=O)c7cc(NC(=O)c8cc(NC(=O)[C@H](N)CCNC(=O)c9cc(NC(=O)c%10cc(NC(=O)CCNC(=O)c%11nc(NC(=O)c%12cc(NC(=O)c%13cc(NC(=O)CCNC(=O)c%14cc(NC(=O)c%15cc(NC(=O)c%16nccn%16C)cn%15C)cn%14C)cn%13C)cn%12C)cn%11C)cn%10C)cn9C)cn8C)cn7C)cn6C)cn5C)cn4C)cn3C)cn2C)cn1C [Polyamide 1066, ImPPβPPIβPPγNH2PPβPPPβPPPβDp] | 0.1 to 1 µM | 0.1 to 1 µM | 0.1 to 1 µM | – |
| ImPPPβPPPγNH2PPPβPPPββDp [Polyamide 1026] | 0.1 to 1 µM | 0.1 to 1 µM | – | – |
| CN(CCCN)CCCNC(=O)CCNC(=O)c1cc(NC(=O)CCNC(=O)c2cc(NC(=O)c3cc(NC(=O)c4cc(NC(=O)CCNC(=O)c5cc(NC(=O)c6cc(NC(=O)CCCNC(=O)CCNC(=O)c7cc(NC(=O)c8cc(NC(=O)CCNC(=O)c9cc(NC(=O)c%10cc(NC(=O)c%11cc(NC(=O)c%12nccn%12C)cn%11C)cn%10C)cn9C)cn8C)cn7C)cn6C)cn5C)cn4C)cn3C)cn2C)cn1C [Polyamide 1027, ImPPPβPPβγPPβPPPβPβTa] | 0.1 to 1 µM | 0.1 to 1 µM | 0.1 to 1 µM | – |
| ImPPβPPIβPPγPPβPPPβPPPPTa [Polyamide 1070] | 0.1 to 1 µM | 0.1 to 1 µM | 0.1 to 1 µM | – |
| ImPPPβPPβPPPγPPPβPPPβPPPβDp [Polyamide 1004] | 0.1 to 1 µM | 0.1 to 1 µM | ≤ 0.1 µM | nearly complete elimination of detectable viral DNA |
| CN(C)CCCNC(=O)CCNC(=O)c1cc(NC(=O)c2cc(NC(=O)c3cc(NC(=O)CCNC(=O)c4cc(NC(=O)c5cc(NC(=O)c6cc(NC(=O)CCNC(=O)c7cc(NC(=O)c8cc(NC(=O)c9cc(NC(=O)CCCNC(=O)c%10cc(NC(=O)c%11cc(NC(=O)CCNC(=O)c%12cc(NC(=O)c%13cc(NC(=O)c%14cc(NC(=O)CCNC(=O)c%15cc(NC(=O)c%16cc(NC(=O)c%17cc(NC(=O)c%18nccn%18C)cn%17C)cn%16C)cn%15C)cn%14C)cn%13C)cn%12C)cn%11C)cn%10C)cn9C)cn8C)cn7C)cn6C)cn5C)cn4C)cn3C)cn2C)cn1C [Polyamide 1047, ImPPPβPPPβPPγPPPβPPPβPPPβDp] | > 1 µM | ≥ 1 µM | ≥ 1 µM | – |
| CN(C)CCCNC(=O)CCNC(=O)c1cc(NC(=O)c2cc(NC(=O)c3cc(NC(=O)CCNC(=O)c4cc(NC(=O)c5cc(NC(=O)c6cc(NC(=O)CCNC(=O)c7cc(NC(=O)c8cc(NC(=O)[C@@H](CCN)NC(=O)c9cc(NC(=O)c%10cc(NC(=O)CCNC(=O)c%11nc(NC(=O)c%12cc(NC(=O)c%13cc(NC(=O)CCNC(=O)c%14cc(NC(=O)c%15cc(NC(=O)c%16nccn%16C)cn%15C)cn%14C)cn%13C)cn%12C)cn%11C)cn%10C)cn9C)cn8C)cn7C)cn6C)cn5C)cn4C)cn3C)cn2C)cn1C [Polyamide 1050, ImPPβPPIβPPγNH2PPβPPPβPPPβDp] | 0.1 to 1 µM | 0.1 to 1 µM | ≥ 1 µM | – |
| CN(CCCN)CCCNC(=O)CCNC(=O)c1cc(NC(=O)c2cc(NC(=O)c3cc(NC(=O)c4cc(NC(=O)CCNC(=O)c5cc(NC(=O)c6cc(NC(=O)[C@H](N)CCNC(=O)c7cc(NC(=O)c8cc(NC(=O)c9cc(NC(=O)CCNC(=O)c%10cc(NC(=O)c%11cc(NC(=O)c%12nccn%12C)cn%11C)cn%10C)cn9C)cn8C)cn7C)cn6C)cn5C)cn4C)cn3C)cn2C)cn1C [Polyamide 1030, ImPPβPPPγNH2PPβPPPPβTa] | 0.1 to 1 µM | 0.1 to 1 µM | 0.1 to 1 µM | – |
| CN(CCCN)CCCNC(=O)CCNC(=O)CCNC(=O)c1cc(NC(=O)c2cc(NC(=O)c3cc(NC(=O)CCNC(=O)c4cc(NC(=O)c5cc(NC(=O)c6cc(NC(=O)C(N)CCNC(=O)c7cc(NC(=O)c8cc(NC(=O)c9cc(NC(=O)CCNC(=O)c%10cc(NC(=O)c%11cc(NC(=O)c%12cc(NC(=O)c%13nccn%13C)cn%12C)cn%11C)cn%10C)cn9C)cn8C)cn7C)cn6C)cn5C)cn4C)cn3C)cn2C)cn1C (stereo not drawn) [Polyamide 1033, ImPPPβPPPγNH2PPPβPPPββTa] | > 1 µM | ≥ 1 µM | – | – |
| CN(CCCN)CCCNC(=O)CCNC(=O)c1cc(NC(=O)CCNC(=O)c2cc(NC(=O)c3cc(NC(=O)c4cc(NC(=O)CCNC(=O)c5cc(NC(=O)c6cc(NC(=O)[C@H](N)CCNC(=O)CCNC(=O)c7cc(NC(=O)c8cc(NC(=O)CCNC(=O)c9cc(NC(=O)c%10cc(NC(=O)c%11cc(NC(=O)c%12nccn%12C)cn%11C)cn%10C)cn9C)cn8C)cn7C)cn6C)cn5C)cn4C)cn3C)cn2C)cn1C [Polyamide 1032, ImPPPβPPβγNH2PPβPPPβPβTa] | 0.1 to 1 µM | 0.1 to 1 µM | – | – |
| CN(C)CCCNC(=O)CCNC(=O)c1cc(NC(=O)c2cc(NC(=O)c3cc(NC(=O)c4cc(NC(=O)CCNC(=O)c5cc(NC(=O)c6cc(NC(=O)CCCNC(=O)c7cc(NC(=O)c8cc(NC(=O)c9cc(NC(=O)CCNC(=O)c%10cc(NC(=O)c%11cc(NC(=O)c%12nccn%12C)cn%11C)cn%10C)cn9C)cn8C)cn7C)cn6C)cn5C)cn4C)cn3C)cn2C)cn1C [Polyamide 1023, ImPPβPPPγPPβPPPPβDp] | > 1 µM | ≥ 1 µM | – | – |
| CN(CCCN)CCCNC(=O)CCNC(=O)c1cc(NC(=O)c2cc(NC(=O)c3cc(NC(=O)CCNC(=O)c4cc(NC(=O)c5cc(NC(=O)c6cc(NC(=O)CCNC(=O)c7cc(NC(=O)c8cc(NC(=O)CCCNC(=O)c9cc(NC(=O)c%10cc(NC(=O)CCNC(=O)c%11nc(NC(=O)c%12cc(NC(=O)c%13cc(NC(=O)CCNC(=O)c%14cc(NC(=O)c%15cc(NC(=O)c%16nccn%16C)cn%15C)cn%14C)cn%13C)cn%12C)cn%11C)cn%10C)cn9C)cn8C)cn7C)cn6C)cn5C)cn4C)cn3C)cn2C)cn1C [Polyamide 1042, ImPPβPPIβPPγPPβPPPβPPPβTa] | – | ≤ 0.1 µM | – | – |
